In US20230114728A1 (Venatorx Pharmaceuticals, Inc., priority 2019, published 2023):
Values after ≈ are worked out from the molar mass of the structure shown. Like-named read-outs stand apart in the source and are kept apart here.

Columns and labels:
Test in all cases: Broth microdilution MIC in iron-depleted CAMHB (IDM)
Format in all cases: cell-based
A. baumannii ATCC 17978 = details: Acinetobacter baumannii
Method in brief: (§1)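 CLSI broth microdilution in iron-depleted CAMHB (Chelex 100-treated, Ca, Mg and 10 μM Zn re-added, pH 7.3). Inoculum was 2-8×10^5 CFU/mL from 3-5 h IDM cultures. Plates were incubated at 37° C for 20-24 h (Acinetobacter) or 16-20 h (Pseudomonas), and MIC was read visually as the lowest concentration without growth.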

A. baumannii ATCC 19606 = details: Acinetobacter baumannii
Method in brief: as §1

[1] = tested on: A. baumannii CDC-0033 producing NDM-1, and OXA-94; details: Acinetobacter baumannii, read-out: Minimum Inhibitory Concentration, CDC-0033
Method in brief: as §1

[2] = tested on: A. baumannii CDC-0036 OXA-65, and OXA-24; details: Acinetobacter baumannii, read-out: Minimum Inhibitory Concentration, CDC-0036
Method in brief: as §1

[3] = tested on: A. baumannii CDC-0083 producing NDM-1, PER-7, OXA-23, and OXA-69; details: Acinetobacter baumannii, read-out: Minimum Inhibitory Concentration, CDC-0083
Method in brief: as §1

[4] = tested on: A. baumannii IL123 (ABΔ3-ARAEcPore); details: Acinetobacter baumannii, read-out: Minimum Inhibitory Concentration, IL-2123
Method in brief: as §1

[5] = tested on: P. aeruginosa (ΔmexAB-oprM); details: Pseudomonas aeruginosa, read-out: Minimum Inhibitory Concentration, P. aeruginosa ΔmexAB-OprM
Method in brief: as §1

P. aeruginosa ATCC 27853 = details: Pseudomonas aeruginosa
Method in brief: as §1

P. aeruginosa ATCC 35151 = details: Pseudomonas aeruginosa, ATCC35151; iron-depleted MHB (IDM); hyper-permeable strain; read-out: Minimum Inhibitory Concentration, P. aeruginosa ATCC 35151
Method in brief: as §1

[6] = tested on: P. aeruginosa CDC-0054 producing VIM-4, OXA-50, and PAO; details: Pseudomonas aeruginosa, read-out: Minimum Inhibitory Concentration, P. aeruginosa CDC-0054
Method in brief: as §1

[7] = tested on: P. aeruginosa CDC-0090 producing KPC-5, OXA-50, and PAO; details: Pseudomonas aeruginosa, read-out: Minimum Inhibitory Concentration, P. aeruginosa CDC-0090
Method in brief: as §1

[8] = tested on: P. aeruginosa CDC-0095 producing OXA-50, and PAO; details: Pseudomonas aeruginosa, read-out: Minimum Inhibitory Concentration, P. aeruginosa CDC-0095
Method in brief: as §1

[9] = tested on: A. baumannii CDC-0045 producing TEM-1D, OXA-23, and OXA-69; details: Acinetobacter baumannii, read-out: Minimum Inhibitory Concentration, CDC-0045
P. aeruginosa CDC-0110 = details: Pseudomonas aeruginosa, CDC0110, read-out: Minimum Inhibitory Concentration, P. aeruginosa CDC-0110
Method in brief: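 MIC is the lowest well showing no visible growth after 16-20 h at 37 °C, starting from 2-8×10^5 CFU/mL in 2-fold serial compound dilutions. Medium: cation-adjusted Mueller Hinton broth iron-depleted with Chelex 100, supplemented back with Ca, Mg and Zn, pH 7.3; CLSI protocol.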

[10] = ATCC17978, read-out: Minimum Inhibitory Concentration, ATCC 17978
[11] = ATCC19606, read-out: Minimum Inhibitory Concentration, ATCC 19606
[12] = ATCC27853, read-out: Minimum Inhibitory Concentration, P. aeruginosa ATCC 27853

SMILES | MIC (A. baumannii ATCC 17978; ATCC17978, A. baumannii ATCC 17978, iron-depleted MHB (IDM), read-out: Minimum Inhibitory Concentration, ATCC 17978) | MIC (A. baumannii ATCC 19606; ATCC19606, A. baumannii ATCC 19606, iron-depleted MHB (IDM), read-out: Minimum Inhibitory Concentration, ATCC 19606) | MIC [1] | MIC [2] | MIC [3] | MIC [4] | MIC [5] | MIC (P. aeruginosa ATCC 27853; ATCC27853, iron-depleted MHB (IDM), read-out: Minimum Inhibitory Concentration, P. aeruginosa ATCC 27853) | MIC (P. aeruginosa ATCC 35151) | MIC [6] | MIC [7] | MIC [8] | MIC [9] | MIC (P. aeruginosa CDC-0110) | MIC (A. baumannii ATCC 17978; [10]) | MIC (A. baumannii ATCC 19606; [11]) | MIC (P. aeruginosa ATCC 27853; [12])
NCCCN1CCN(C(=O)N[C@H](C(=O)N[C@H]2Cc3ccc(F)c(C(=O)O)c3OB2O)c2ccc(O)c(O)c2Cl)C(=O)C1=O (single isomer, unassigned) [Example 28] | 0.5 to 1 µg/mL (≈ 0.804 to 1.61 µM) | 8 to 16 µg/mL (≈ 12.9 to 25.7 µM) | 32 to 64 µg/mL (≈ 51.5 to 103 µM) | 32 to 64 µg/mL (≈ 51.5 to 103 µM) | 32 to 64 µg/mL (≈ 51.5 to 103 µM) | 32 to 64 µg/mL (≈ 51.5 to 103 µM) | 0.5 to 1 µg/mL (≈ 0.804 to 1.61 µM) | 2 to 4 µg/mL (≈ 3.22 to 6.43 µM) | 0.25 µg/mL (≈ 0.402 µM) | 2 to 4 µg/mL (≈ 3.22 to 6.43 µM) | 2 to 4 µg/mL (≈ 3.22 to 6.43 µM) | 32 to 64 µg/mL (≈ 51.5 to 103 µM) | 32 to 64 µg/mL (≈ 51.5 to 103 µM) | 8 to 16 µg/mL (≈ 12.9 to 25.7 µM) |  |  | 
O=C(O)c1c(F)ccc2c1OB(O)[C@@H](NC(=O)[C@H](NC(=O)N1CCNC1=O)c1c(F)cc(O)c(O)c1Cl)C2 (single isomer, unassigned) [Example 34] |  |  | 0.5 to 1 µg/mL (≈ 0.901 to 1.8 µM) | 0.5 to 1 µg/mL (≈ 0.901 to 1.8 µM) | 0.5 to 1 µg/mL (≈ 0.901 to 1.8 µM) | 2 to 4 µg/mL (≈ 3.61 to 7.21 µM) | 0.25 µg/mL (≈ 0.451 µM) |  | 0.25 µg/mL (≈ 0.451 µM) | 0.5 to 1 µg/mL (≈ 0.901 to 1.8 µM) | 0.5 to 1 µg/mL (≈ 0.901 to 1.8 µM) | 32 to 64 µg/mL (≈ 57.7 to 115 µM) | 0.25 µg/mL (≈ 0.451 µM) | 0.5 to 1 µg/mL (≈ 0.901 to 1.8 µM) | 0.25 µg/mL (≈ 0.451 µM) | 0.25 µg/mL (≈ 0.451 µM) | 0.5 to 1 µg/mL (≈ 0.901 to 1.8 µM)
CS(=O)(=O)N1CCN(C(=O)N[C@@H](C(=O)N[C@H]2Cc3ccc(F)c(C(=O)O)c3OB2O)c2c(F)cc(O)c(O)c2Cl)C1=O (single isomer, unassigned) [Example 35] |  |  | 0.5 to 1 µg/mL (≈ 0.79 to 1.58 µM) | 0.5 to 1 µg/mL (≈ 0.79 to 1.58 µM) | 0.25 µg/mL (≈ 0.395 µM) | 2 to 4 µg/mL (≈ 3.16 to 6.32 µM) | 0.25 µg/mL (≈ 0.395 µM) |  | 0.25 µg/mL (≈ 0.395 µM) | 0.5 to 1 µg/mL (≈ 0.79 to 1.58 µM) | 0.5 to 1 µg/mL (≈ 0.79 to 1.58 µM) | 32 to 64 µg/mL (≈ 50.6 to 101 µM) | 0.25 µg/mL (≈ 0.395 µM) | 0.5 to 1 µg/mL (≈ 0.79 to 1.58 µM) | 0.25 µg/mL (≈ 0.395 µM) | 0.25 µg/mL (≈ 0.395 µM) | 0.5 to 1 µg/mL (≈ 0.79 to 1.58 µM)
NCCN1CCN(C(=O)N[C@@H](C(=O)N[C@H]2Cc3ccc(F)c(C(=O)O)c3OB2O)c2c(F)cc(O)c(O)c2F)C(=O)C1=O (single isomer, unassigned) [Example 40] |  |  | 2 to 4 µg/mL (≈ 3.28 to 6.57 µM) | 2 to 4 µg/mL (≈ 3.28 to 6.57 µM) | 0.5 to 1 µg/mL (≈ 0.821 to 1.64 µM) | 8 to 16 µg/mL (≈ 13.1 to 26.3 µM) | 0.25 µg/mL (≈ 0.41 µM) |  | 0.25 µg/mL (≈ 0.41 µM) | 8 to 16 µg/mL (≈ 13.1 to 26.3 µM) | 8 to 16 µg/mL (≈ 13.1 to 26.3 µM) | 2 to 4 µg/mL (≈ 3.28 to 6.57 µM) | 2 to 4 µg/mL (≈ 3.28 to 6.57 µM) | 2 to 4 µg/mL (≈ 3.28 to 6.57 µM) | 0.25 µg/mL (≈ 0.41 µM) | 0.5 to 1 µg/mL (≈ 0.821 to 1.64 µM) | 2 to 4 µg/mL (≈ 3.28 to 6.57 µM)
NCCCN1CCN(C(=O)N[C@@H](C(=O)N[C@H]2Cc3ccc(F)c(C(=O)O)c3OB2O)c2c(F)cc(O)c(O)c2F)C(=O)C1=O (single isomer, unassigned) [Example 41] |  |  | 2 to 4 µg/mL (≈ 3.21 to 6.42 µM) | 2 to 4 µg/mL (≈ 3.21 to 6.42 µM) | 0.5 to 1 µg/mL (≈ 0.802 to 1.6 µM) | 2 to 4 µg/mL (≈ 3.21 to 6.42 µM) | 0.25 µg/mL (≈ 0.401 µM) |  | 0.25 µg/mL (≈ 0.401 µM) | 2 to 4 µg/mL (≈ 3.21 to 6.42 µM) | 0.25 µg/mL (≈ 0.401 µM) | 2 to 4 µg/mL (≈ 3.21 to 6.42 µM) | 0.5 to 1 µg/mL (≈ 0.802 to 1.6 µM) | 2 to 4 µg/mL (≈ 3.21 to 6.42 µM) | 0.25 µg/mL (≈ 0.401 µM) | 0.5 to 1 µg/mL (≈ 0.802 to 1.6 µM) | 2 to 4 µg/mL (≈ 3.21 to 6.42 µM)
